Assay results reported in ChEMBL document CHEMBL1201862, “PubChem BioAssay data set” (2004).
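1) Cells in 96-well plates. 2) Compound, 48 h, 5 concentrations. 3) Linear interpolation between surrounding doses. 4) Unreached endpoint = highest concentration. GI50 is the concentration that inhibits growth by half.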 The source made the active and inactive calls. Cut-off read from the data, not from the text of the source: active = GI50 up to about 1.1 µM and inactive = higher.

Experiments:
Assay in all cases: NCI anticancer screen, dose series, 48 h
786-0 = test system: 786-0
A498 = test system: A498
A549 = test system: A549
ACHN = test system: ACHN
CCRF-CEM = test system: CCRF-CEM
COLO 205 = test system: COLO 205
DLD-1 = test system: DLD-1
DMS-114 = test system: DMS-114
EKVX = test system: EKVX
HCC 2998 = test system: HCC 2998
HCT-116 = test system: HCT-116
HCT-15 = test system: HCT-15
HL-60 = test system: HL-60
HOP-18 = test system: HOP-18
HOP-62 = test system: HOP-62
HT-29 = test system: HT-29
IGROV-1 = test system: IGROV-1
K562 = test system: K562
KM-20L2 = test system: KM-20L2
KM12 = test system: KM12
LOX IMVI = test system: LOX IMVI
LXFL 529 = test system: LXFL 529
M14 = test system: M14
M19-MEL = test system: M19-MEL
MOLT-4 = test system: MOLT-4
Malme-3M = test system: Malme-3M
NCI-H226 = test system: NCI-H226
NCI-H23 = test system: NCI-H23
NCI-H460 = test system: NCI-H460
NCI-H522 = test system: NCI-H522
OVCAR-3 = test system: OVCAR-3
OVCAR-4 = test system: OVCAR-4
OVCAR-5 = test system: OVCAR-5
OVCAR-8 = test system: OVCAR-8
RPMI-8226 = test system: RPMI-8226
RXF 393 = test system: RXF 393
RXF 631 = test system: RXF 631
SF-268 = test system: SF-268
SF-295 = test system: SF-295
SF-539 = test system: SF-539
SK-MEL-28 = test system: SK-MEL-28
SK-MEL-2 = test system: SK-MEL-2
SK-OV-3 = test system: SK-OV-3
SN12C = test system: SN12C
SNB-19 = test system: SNB-19
SNB-75 = test system: SNB-75
SNB-78 = test system: SNB-78
SW-620 = test system: SW-620
TK-10 = test system: TK-10
U-251 = test system: U-251
UACC-257 = test system: UACC-257
UACC-62 = test system: UACC-62
UO-31 = test system: UO-31
XF498 = test system: XF498

With `O=C1C=CC2(CCC23C=CC(=O)O3)O1` (centres undefined) the GI50 (786-0) was > 100 µM (inactive), the GI50 (A498) was > 100 µM (inactive) and the GI50 (A549) was > 100 µM (inactive). For the same compound, the GI50 (ACHN) was > 100 µM (inactive), the GI50 (CCRF-CEM) was 86.5 µM (inactive) and the GI50 (COLO 205) was > 100 µM (inactive). For the same compound, the GI50 (DLD-1) was > 100 µM (inactive), the GI50 (DMS-114) was > 100 µM (inactive) and the GI50 (EKVX) was > 100 µM (inactive). For the same compound, the GI50 (HCC 2998) was > 100 µM (inactive), the GI50 (HCT-116) was > 100 µM (inactive) and the GI50 (HCT-15) was greater than 100 µM. The GI50 (HL-60) was 74.8 µM (inactive), the GI50 (HOP-18) was > 100 µM (inactive) and the GI50 (HOP-62) was > 100 µM (inactive). The GI50 (HT-29) was > 100 µM (inactive), the GI50 (IGROV-1) was > 100 µM (inactive) and the GI50 (K562) was > 100 µM (inactive). The GI50 (KM-20L2) was > 100 µM (inactive), the GI50 (KM12) was > 100 µM (inactive) and the GI50 (LOX IMVI) was > 100 µM (inactive). For the same compound, the GI50 (LXFL 529) was 81.3 µM (inactive), the GI50 (M14) was > 100 µM (inactive) and the GI50 (M19-MEL) was > 100 µM (inactive). For the same compound, the GI50 (MOLT-4) was > 100 µM (inactive), the GI50 (Malme-3M) was > 100 µM (inactive) and the GI50 (NCI-H226) was > 100 µM (inactive). The GI50 (NCI-H23) was > 100 µM (inactive), the GI50 (NCI-H460) was > 100 µM (inactive) and the GI50 (NCI-H522) was 51.6 µM (inactive). For the same compound, the GI50 (OVCAR-3) was > 100 µM (inactive), the GI50 (OVCAR-4) was > 100 µM (inactive) and the GI50 (OVCAR-5) was > 100 µM (inactive). The GI50 (OVCAR-8) was > 100 µM (inactive), the GI50 (RPMI-8226) was > 100 µM (inactive) and the GI50 (RXF 393) was > 100 µM (inactive). The GI50 (RXF 631) was 71 µM (inactive), the GI50 (SF-268) was > 100 µM (inactive) and the GI50 (SF-295) was > 100 µM (inactive). For the same compound, the GI50 (SF-539) was > 100 µM (inactive), the GI50 (SK-MEL-28) was > 100 µM (inactive) and the GI50 (SK-MEL-2) was > 100 µM (inactive). For the same compound, the GI50 (SK-OV-3) was > 100 µM (inactive), the GI50 (SN12C) was > 100 µM (inactive) and the GI50 (SNB-19) was > 100 µM (inactive). The GI50 (SNB-75) was > 100 µM (inactive), the GI50 (SNB-78) was > 100 µM (inactive) and the GI50 (SW-620) was 94.6 µM (inactive). For the same compound, the GI50 (TK-10) was > 100 µM (inactive), the GI50 (U-251) was > 100 µM (inactive) and the GI50 (UACC-257) was > 100 µM (inactive). For the same compound, the GI50 (UACC-62) was > 100 µM (inactive), the GI50 (UO-31) was > 100 µM (inactive) and the GI50 (XF498) was > 100 µM (inactive).
